The values that follow come from PubChem BioAssay (NCI).

Experiment in all cases: growth of human tumour cells (NCI), 48 h
Experiment [1] relates to 786-0 renal.
Experiment [2] deals with A498 renal.
Experiment [3] deals with A549 NSCLC.
Experiment [4] has as its system ACHN renal.
The subject of experiment [5] is BT-549 breast.
The test system of experiment [6] is CAKI-1 renal.
Experiment [7] concerns CCRF-CEM leukemia.
Experiment [8] deals with COLO 205 colon.
Experiment [9] has as its system DU-145 prostate.
Experiment [10] has as its system EKVX NSCLC.
For experiment [11], the system named is HCC-2998 colon.
Experiment [12] has as its system HCT-116 colon.
In experiment [13] the test system is HCT-15 colon.
Experiment [14] concerns HL-60(TB) leukemia.
Experiment [15] deals with HOP-62 NSCLC.
For experiment [16], the system named is HOP-92 NSCLC.
Experiment [17] concerns HS 578T breast.
For experiment [18], the system named is HT29 colon.
The test system of experiment [19] is IGROV1 ovarian.
In experiment [20] the test system is K-562 leukemia.
For experiment [21], the system named is KM12 colon.
Experiment [22] concerns LOX IMVI melanoma.
The subject of experiment [23] is M14 melanoma.
Experiment [24] relates to MALME-3M melanoma.
The test system of experiment [25] is MCF7 breast.
In experiment [26] the test system is MDA-MB-435.
For experiment [27], the system named is MDA-MB-468 breast.
For experiment [28], the system named is MOLT-4 leukemia.
Experiment [29] deals with NCI-H226 lung.
Experiment [30] has as its system NCI-H23 lung.
The subject of experiment [31] is NCI-H460 lung.
Experiment [32] relates to NCI-H522 lung.
Experiment [33] has as its system NCI/ADR-RES ovarian.
Experiment [34] deals with OVCAR-3 ovarian.
The test system of experiment [35] is OVCAR-4 ovarian.
The subject of experiment [36] is OVCAR-5 ovarian.
Experiment [37] relates to OVCAR-8 ovarian.
Experiment [38] relates to PC-3 prostate.
The test system of experiment [39] is RPMI-8226 leukemia.
The test system of experiment [40] is RXF 393 renal.
Experiment [41] relates to SF-268 CNS.
Experiment [42] relates to SF-295 CNS.
Experiment [43] deals with SF-539 CNS.
For experiment [44], the system named is SK-MEL-28 melanoma.
For experiment [45], the system named is SK-MEL-5 melanoma.
For experiment [46], the system named is SK-OV-3 ovarian.
In experiment [47] the test system is SN12C renal.
Experiment [48] relates to SNB-19 CNS.
Experiment [49] concerns SR leukemia.
Experiment [50] has as its system SW-620 colon.
For experiment [51], the system named is T-47D breast.
Experiment [52] relates to TK-10 renal.
The subject of experiment [53] is U251 CNS.
In experiment [54] the test system is UACC-257 melanoma.
Experiment [55] concerns UACC-62 melanoma.

SMILES strings stand for the structures.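 Interpolation was linear, between the two tested concentrations surrounding the appropriate level; five concentrations were tested over 48 hours in 96-well plates. GI50: concentration for 50% inhibition of growth. At the TGI there is no net growth.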

On to `COc1ccc2ccccc2c1/C=C1\SC(=Nc2ccc(O)cc2)NC1=O`, for which the GI50 in [1] is 3.19 µM; in experiment [2], 3.7 µM; in experiment [3], 2010 nM; in experiment [4], 1810 nM; in experiment [5], 1040 nM; in experiment [6], 11.1 µM. In addition, the GI50 in experiment [7] was 651 nM; in [8] it was 1880 nM; in experiment [9], 2170 nM; in [10], 1110 nM; in experiment [11], 1730 nM; in experiment [12], 432 nM. Besides, the GI50 in [13] is 442 nM; in [14], 431 nM; in experiment [15], 2580 nM; in [16] it was 2050 nM; in experiment [17] it was 400 nM; in experiment [18], 2820 nM. Further, the GI50 in [19] is 1850 nM; in [20], 413 nM; in experiment [21] it was 1190 nM; in experiment [22], 666 nM; in [23] it was 492 nM; in experiment [24], 1020 nM. The GI50 was 428 nM in experiment [25]; 235 nM in experiment [26]; 370 nM in experiment [27]; 1510 nM in experiment [28]; 5.56 µM in experiment [29]; 1110 nM in [30]. For the same compound, the GI50 in [31] was 833 nM; in [32], 422 nM; in experiment [33] it was 950 nM; in experiment [34] it was 425 nM; in experiment [35] it was 3.81 µM; in [36], 3.56 µM. The GI50 in experiment [37] is 1580 nM; in [38] it was 798 nM; in experiment [39], 2590 nM; in [40], 272 nM; in [41], 1590 nM; in experiment [42], 843 nM. Besides, the GI50 in experiment [43] was 517 nM; in experiment [44], 966 nM; in experiment [45], 540 nM; in experiment [46], 1660 nM; in experiment [47] it was 2480 nM; in experiment [48], 1800 nM. The GI50 in experiment [49] was 321 nM; in experiment [50], 437 nM; in [51], 765 nM; in experiment [52] it was 4.14 µM; in experiment [53] it was 425 nM; in experiment [54], 683 nM. Further, the GI50 in experiment [55] was 346 nM. Besides, the TGI in experiment [1] turned out to be 21 µM; in experiment [2] it was 16.4 µM; in experiment [3], 16.9 µM; in experiment [4] it was 16.3 µM; in experiment [5], 4.54 µM; in [6] it was 46.5 µM. Besides, the TGI is 30.1 µM in experiment [7]; 5.04 µM in experiment [8]; 19.6 µM in [9]; 17.3 µM in experiment [10]; 12.6 µM in experiment [11]; 11.6 µM in [12]. Moreover, the TGI came to 11.1 µM in [13]; 2650 nM in experiment [14]; 13.6 µM in [15]; 20.3 µM in experiment [16]; 11.9 µM in experiment [17]; 7.35 µM in experiment [18]. For the same compound, the TGI in [19] was found to be 14.4 µM; in experiment [20] it was 11.9 µM; in [21], 14.8 µM; in [22], 12.1 µM; in experiment [23], 10.8 µM; in [24], 14.4 µM. Besides, the TGI in experiment [25] came out at 12.5 µM; in experiment [26], 591 nM; in experiment [27] it was 1.82 µM; in [28], 11.3 µM; in experiment [29], 34.7 µM; in [30] it was 11.3 µM. Also, the TGI in experiment [31] was 11.3 µM; in experiment [32], 2220 nM; in experiment [33] it was 3.8 µM; in experiment [34], 11.7 µM; in experiment [35] it was 21.1 µM; in [36], 16.2 µM. In addition, the TGI in experiment [37] stood at 6.51 µM; in experiment [38], 29.1 µM; in experiment [39], 9.45 µM; in experiment [40] it was 1710 nM; in [41], 18.7 µM; in [42], 10.9 µM. The TGI is 3.4 µM in [43]; 19.9 µM in [44]; 2280 nM in [45]; 18 µM in experiment [46]; 13.3 µM in experiment [47]; 14 µM in experiment [48]. The TGI in experiment [49] is 12.5 µM; in [50], 15.8 µM; in experiment [51] it was 31.7 µM; in [52], 21.6 µM; in experiment [53] it was 11.3 µM; in experiment [54], 19.6 µM. The same compound returned a TGI in [55] of 12.5 µM.

Turning to `Nc1ncn([C@H]2C[C@H](OP(=O)(O)OC[C@H]3O[C@@H](n4cnc5c(=O)[nH]c(N)nc54)C[C@@H]3O)[C@@H](CO)O2)c(=O)n1`, in [27], the GI50 is 154 nM and the TGI is 67.9 µM.

Regarding `CNC(=O)c1cccc(C#Cc2cncnc2Nc2ccc(OCc3cccc(F)c3)c(Cl)c2)c1`, in experiment [27], the GI50 is 616 nM and the TGI was 4.05 µM.

Turning to `CCCCCCCCCCCCCCCCN(CC)CC`, in [27], the GI50 is 2210 nM and the TGI is 4.55 µM.

Regarding `CN(C)C=Nc1c(I)cc(I)c(CCC(=O)O)c1I`, in experiment [27], the GI50 was over 100000 nM and the TGI is over 100 µM.

Regarding `O=C1NC(=NCCc2ccccn2)S/C1=C\c1ccc2ncccc2c1`, in [27], the GI50 is 5770 nM and the TGI was over 25 µM.

`O=c1oc2ccc(Br)cc2c(=O)n1-c1ccc(Cl)cc1F`: in [27], the GI50 is 1380 nM and the TGI was found to be 5.19 µM.

`C=CC(=O)N1CC[C@H](n2nc(C#Cc3cc(OC)cc(OC)c3)c3c(N)ncnc32)C1`: in [27], the GI50 was 3330 nM and the TGI was determined as 78.5 µM.
